# Results published in US20090082326A1, “SOLUBLE DOSAGE FORMS CONTAINING CEPHEM DERIVATIVES SUITABLE FOR PARENTERAL ADMINISTRATION” (Forest Laboratories Holdings Limited, priority 2007, published 2009).
# Counter-ions that a name gives are not always drawn.
# Experiments:
# [1] = Part B: multiple-dose IM injection pharmacokinetic study in healthy human subjects; type: in vivo
# Procedure: (§1) The pharmacokinetic parameters described herein include area under the plasma concentration-time curve (AUC0-t and AUC0-∞), maximum plasma concentration (Cmax), and time of maximum plasma concentration (Tmax). Terminal elimination half-life (T1/2) may also be provided. The time of maximum concentration, Tmax, is determined as the time corresponding to Cmax. Area under the plasma concentration-time curve up to the time corresponding to the last measurable concentration (AUC0-t) is calculated by numerical integration using the linear trapezoidal rule as follows:
# (§2) This was a two-part randomized, single and multiple-dose study to determine pharmacokinetics of ceftaroline fosamil and its the active moiety, ceftaroline, administered parenterally (both intramuscular injection and intravenous injection).
# (§3) Part A of the study was a single-dose open-label study. Part B of the study was a multiple-dose study.
# Eighteen subjects were randomized to one of two treatment groups The IM injection was be administered to the alternating side of the gluteus in each subject.
# (§4) The duration of the study for Treatment Groups E and F was 11 days (Days-1 through 10). Ceftaroline dosing solutions for IM injection were prepared using sterile water for injection.
# (§5) The pharmacokinetic parameters for ceftaroline fosamil and ceftaroline were determined using a standard assay. Blood for pharmacokinetic parameter analysis was collected from all subjects as follows: The first blood sample was collected at about 5 minutes (about 0.06 hours) after completion of the administration. Measurement was considered essentially zero prior to this point.
# (§6) Part A: 5, 15, and 30 minutes and 1, 2, 4, 6, 8, 12, 18, 24, 36 and 48 hours after injection. In addition, blood were be collected from subjects receiving IV infusion immediately prior to drug injection on day 8 and at 20, 40, 60 (immediately before the end of the study-drug infusion), 65 and 75 minutes, and 1.5, 2, 3, 4, 6, 8, 12, 24, 36 and 48 hours after the start of the drug infusion on Day 8. Part B: Drug injection on Days 1 and 5, at 5, 15, and 30 minutes and 1, 2, 4, 6, […] after the first injection on Day 1, immediately prior to (within 15 minutes) of injection of morning dose on Day 4, at 12 hours post Day 4 morning dose (before evening dose) and at 5, and 30 minutes and 1, 2, 4, 6, 8, 12, 24, 36 and 48 hours after the last (morning) injection on Day 5.
# [2] = Part A: single-dose IM injection and IV infusion pharmacokinetic study in healthy human subjects; type: in vivo; details: for Mean AUC0-∞ / Mean Cmax / Mean Tmax: prodrug; for AUC(0-inf): AUC0-∞; for half-life: T1/2
# Procedure: as §1, §2, §3
# Twenty four subjects (six subjects per treatment group) were randomized to one of four treatment groups (A-D): The following doses were administered using vials containing 668 mg ceftaroline fosamil (USAN, molecular formula C22H21N8O8PS4.C2H4O2.H2O, molecular weight 762.75).
# as §4, §5, §6
# [3] = Linear calculated pharmacokinetic parameters following single dose IM injection; type: in vivo, human; details: for Mean AUC0-∞ / Mean Cmax / Mean Tmax: prodrug, 228 mg/mL, calculated on linear assumptions; for AUC(0-inf) / Cmax / Tmax: human, in vivo, im
# Excerpt: The AUC0-∞ and Cmax values increase or decrease proportionally with the dosage of ceftaroline fosamil. Thus, one skilled in the art with the benefit of this disclosure may readily determine pharmacokinetic parameters for any specific dosage of ceftaroline fosamil (or other prodrugs of ceftaroline) used in a particular dosage form of the invention. The pro-drug in the blood is converted rapidly to the active moiety ceftaroline.
# Linear calculated pharmacokinetic parameters for ceftaroline following single dose IM injection of ceftaroline fosamil using vials containing 668 mg ceftaroline fosamil (USAN) at 228 mg/mL, defined per Table 23 are shown in Table 26.
# Linear calculated pharmacokinetic parameters for ceftaroline fosamil (INN) following single dose IM injection of ceftaroline fosamil USAN (at concentration of ceftaroline fosamil (anhydrous, acetate free basis of 228 mg/mL, defined per Table 23) are shown in Table 27.
# [4] = Aqueous solubility (stated in the description); type: physicochemical; details: water
# [5] = test system: aerobic and some anaerobic Gram-positive and Gram-negative bacteria; test: In vitro antimicrobial spectrum (MIC90); type: cell-based; details: read-out: minimum inhibitory concentration which inhibits 90% of the microbial strains in a given species (MIC90)
# [6] = prodrug in plasma, Treatment E: 600 mg (INN) IM q12h, Day 5, 228 mg/mL
# [7] = prodrug in plasma, Treatment E: 600 mg (INN) IM, Day 1, 228 mg/mL
# [8] = prodrug in plasma, Treatment A: 400 mg (INN) IM, 228 mg/mL
# [9] = prodrug in plasma, Treatment B: 600 mg (INN) IM, 165 mg/mL
# [10] = prodrug in plasma, Treatment C: 600 mg (INN) IM, Day 1, 228 mg/mL
# [11] = prodrug in plasma, Treatment C: 600 mg (INN) IV infusion over 60 mins, Day 8
# [12] = prodrug in plasma, Treatment D: 1000 mg (INN) IM, 228 mg/mL
# [13] = single dose IM ceftaroline fosamil (USAN) 446 mg (≡400 mg INN), 228 mg/mL
# [14] = single dose IM ceftaroline fosamil (USAN) 668 mg (≡600 mg INN), 228 mg/mL
# [15] = single dose IM ceftaroline fosamil (USAN) 1114 mg (≡1000 mg INN), 228 mg/mL
# [16] = single dose IM ceftaroline fosamil (USAN) 223 mg (≡200 mg INN)
# [17] = single dose IM ceftaroline fosamil (USAN) 557 mg (≡500 mg INN)
# [18] = single dose IM ceftaroline fosamil (USAN) 891 mg (≡800 mg INN)
# [19] = single dose IM ceftaroline fosamil (USAN) 1337 mg (≡1200 mg INN)
# [20] = single dose IM ceftaroline fosamil (USAN) 2005 mg (≡1800 mg INN)
# [21] = human, in vivo, im, 600 mg, AUC0-t
structure (smiles),measurement,setting,value
"CCO/N=C(\C(=O)N[C@@H]1C(=O)N2C(C(=O)[O-])=C(Sc3nc(-c4cc[n+](C)cc4)cs3)CS[C@H]12)c1nsc(NP(=O)(O)O)n1 [Ceftaroline Fosamil (INN), 4-[2-[[(6R,7R)-2-carboxy-7-[[2(Z)-ethoxyimino-[5-(phosphonoamino)-1,2,4-thiadiazol-3-yl]acetyl]amino]-8-oxo-5-thia-1-azabicyclo[4.2.0]oct-2-en-3-yl]thio-4-thiazolyl]-1-methyl-, inner salt]",AUC0-t,[1]; [6],4067 ± 782 ng·h/mL
same,Cmax,[1]; [6],2223 ± 497 ng/mL
same,T1/2,[1]; [6],1.11 ± 0.35 h
same,Tmax,[1]; [6],0.50 h
same,AUC0-t,[1]; [7],3096 ± 850 ng·h/mL
same,Cmax,[1]; [7],1575 ± 507 ng/mL
same,T1/2,[1]; [7],1.17 ± 0.52 h
same,Tmax,[1]; [7],0.50 h
same,more bioavailable than an IV solution of the same strength,[2]; 600 mg (INN) IM solution at 165 mg/mL vs IV,over 50%
same,AUC0-t,[2]; [8],1950 ± 401 ng·h/mL
same,AUC0-∞,[2]; [8],2144 ± 421 ng·h/mL
same,Cmax,[2]; [8],1113 ± 418 ng/mL
same,T1/2,[2]; [8],1.21 ± 0.49 h
same,Tmax,[2]; [8],0.29 h
same,AUC0-t,[2]; [9],4846 ± 975 ng·h/mL
same,AUC0-∞,[2]; [9],5118 ± 985 ng·h/mL
same,Cmax,[2]; [9],2722 ± 557 ng/mL
same,T1/2,[2]; [9],1.06 ± 0.33 h
same,Tmax,[2]; [9],0.75 h
same,AUC0-t,[2]; [10],3060 ± 475 ng·h/mL
same,AUC0-∞,[2]; [10],3242 ± 486 ng·h/mL
same,Cmax,[2]; [10],1492 ± 275 ng/mL
same,T1/2,[2]; [10],1.57 ± 0.41 h
same,Tmax,[2]; [10],0.50 h
same,AUC0-t,[2]; [11],2734 ± 340 ng·h/mL
same,AUC0-∞,[2]; [11],2744 ± 344 ng·h/mL
same,Cmax,[2]; [11],3549 ± 465 ng/mL
same,T1/2,[2]; [11],0.07 ± 0.03 h
same,Tmax,[2]; [11],0.67 h
same,AUC0-t,[2]; [12],5791 ± 2795 ng·h/mL
same,AUC0-∞,[2]; [12],6229 ± 2829 ng·h/mL
same,Cmax,[2]; [12],2239 ± 657 ng/mL
same,T1/2,[2]; [12],1.87 ± 0.90 h
same,Tmax,[2]; [12],0.38 h
same,Mean AUC0-∞,[2]; [13],2144 ng·h/mL
same,Mean Cmax,[2]; [13],1113 ng/mL
same,Mean Tmax,[2]; [13],0.29 h
same,Mean AUC0-∞,[2]; [14],3242 ng·h/mL
same,Mean Cmax,[2]; [14],1492 ng/mL
same,Mean Tmax,[2]; [14],0.5 h
same,Mean AUC0-∞,[2]; [15],6229 ng·h/mL
same,Mean Cmax,[2]; [15],2238 ng/mL
same,Mean Tmax,[2]; [15],0.5 h
same,Mean AUC0-∞,[3]; [16],1162 ng·h/mL
same,Mean Cmax,[3]; [16],484 ng/mL
same,Mean Tmax,[3]; [16],0.3 h
same,Mean AUC0-∞,[3]; [17],2905 ng·h/mL
same,Mean Cmax,[3]; [17],1210 ng/mL
same,Mean Tmax,[3]; [17],0.5 h
same,Mean AUC0-∞,[3]; [18],4648 ng·h/mL
same,Mean Cmax,[3]; [18],1936 ng/mL
same,Mean Tmax,[3]; [18],0.5 h
same,Mean AUC0-∞,[3]; [19],6972 ng·h/mL
same,Mean Cmax,[3]; [19],2904 ng/mL
same,Mean Tmax,[3]; [19],0.5 h
same,Mean AUC0-∞,[3]; [20],10458 ng·h/mL
same,Mean Cmax,[3]; [20],4356 ng/mL
same,Mean Tmax,[3]; [20],0.5 h
"CCO/N=C(\C(=O)N[C@@H]1C(=O)N2C(C(=O)[O-])=C(Sc3nc(-c4cc[n+](C)cc4)cs3)CS[C@H]12)c1nsc(N)n1 [Ceftaroline, ceftaroline]",AUC0-t,"[1]; human, in vivo, im, 600 mg",65407 ± 11807 ng·h/mL
same,T1/2,"[1]; human, in vivo, im, 600 mg",2.51 ± 0.45 h
same,AUC0-t,[1]; [21],55300 ± 11100 ng·h/mL
same,half-life,"[1]; human, in vivo, im, 600 mg, T1/2",2.54 ± 0.63 h
same,solubility,[4],2000 to 3000 µg/mL
same,AUC greater at 165 mg/mL than at 228 mg/mL,"[2]; human, in vivo",~56%
same,Bioavailability (absolute),"[2]; human, in vivo",107 ± 7.1%
same,Cmax greater at 165 mg/mL than at 228 mg/mL,"[2]; human, in vivo",approximately 72%
same,bioavailability,"[2]; human, in vivo, Bioavailability (absolute)",~100%
same,Cmax,"[2]; human, in vivo, im, 400 mg",6971 ± 1616 ng/mL
same,Tmax,"[2]; human, in vivo, im, 400 mg",1.5 (1.0-2.0) h
same,AUC0-t,"[2]; human, in vivo, im, 400 mg, AUC0-t",35300 ± 6160 ng·h/mL
same,AUC(0-inf),"[2]; human, in vivo, im, 400 mg",35600 ± 6130 ng·h/mL
same,half-life,"[2]; human, in vivo, im, 400 mg",2.36 ± 0.22 h
same,AUC0-t,"[2]; human, in vivo, im, 600 mg",73439 ± 12080 ng·h/mL
same,AUC0-∞,"[2]; human, in vivo, im, 600 mg",73826 ± 12031 ng·h/mL
same,T1/2,"[2]; human, in vivo, im, 600 mg",2.27 ± 0.16 h
same,Tmax,"[2]; human, in vivo, im, 600 mg",2.0 (1.2-2.0) h
same,AUC0-t,[2]; [21],47500 ± 4010 ng·h/mL
same,AUC(0-inf),"[2]; human, in vivo, im, 600 mg",48100 ± 3850 ng·h/mL
same,half-life,"[2]; human, in vivo, im, 600 mg",2.55 ± 0.49 h
same,Tmax,"[2]; human, in vivo, im, 600 mg, Tmax",2 h
same,Cmax,"[2]; human, in vivo, im, 1000 mg",15997 ± 3739 ng/mL
same,AUC0-t,"[2]; human, in vivo, im, 1000 mg, AUC0-t",110000 ± 31300 ng·h/mL
same,AUC(0-inf),"[2]; human, in vivo, im, 1000 mg",110000 ± 31300 ng·h/mL
same,half-life,"[2]; human, in vivo, im, 1000 mg",2.68 ± 0.31 h
same,Tmax,"[2]; human, in vivo, im, 1000 mg, Tmax",2 h
same,Tmax,"[2]; human, in vivo, im, Mean Tmax",2 h
same,Tmax,"[2]; human, in vivo, im, Tmax following IM injection",1 to 2 h
same,Tmax,"[2]; human, in vivo, iv",1.0 (1.0-1.0) h
same,half-life,"[2]; human, in vivo, iv",2.13 ± 0.31 h
same,Tmax,"[2]; human, in vivo, iv, Tmax following IV infusion",~1 h
same,MIC90,[5],≤ 2000 µg/mL
same,AUC(0-inf),[3]; 223 mg,17800 ng·h/mL
same,Cmax,[3]; 223 mg,3490 ng/mL
same,Tmax,[3]; 223 mg,1.5 h
same,AUC(0-inf),[3]; 557 mg,43200 ng·h/mL
same,Cmax,[3]; 557 mg,7900 ng/mL
same,Tmax,[3]; 557 mg,2 h
same,AUC(0-inf),[3]; 891 mg,81800 ng·h/mL
same,Cmax,[3]; 891 mg,12600 ng/mL
same,Tmax,[3]; 891 mg,2 h
same,AUC(0-inf),[3]; 1337 mg,133000 ng·h/mL
same,Cmax,[3]; 1337 mg,18800 ng/mL
same,Tmax,[3]; 1337 mg,2 h
same,AUC(0-inf),[3]; 2005 mg,211000 ng·h/mL
same,Cmax,[3]; 2005 mg,28100 ng/mL
same,Tmax,[3]; 2005 mg,2 h
